Patent US7033829B2, “Method to inhibit cell growth using oligonucleotides” (Trustees of Boston University, priority 2000, dated 2006)
Oligonucleotides are written 5' to 3', each unit as a sugar letter and its base; * is a phosphorothioate linkage, no mark a phosphodiester; rarer units and linkages stand in square brackets, end groups in braces. Plain capitals give the bases only. d = 2'-deoxy (DNA); {P} = phosphate

Legend:
[1] = system: Cloudman S91 mouse melanoma cells; assay: Melanin content of Cloudman S91 melanoma cells; type: cell-based; details: for pigment content increase, of control levels: 100 μM, three experiments; for pigment content increase, of control levels / melanin content, of control cells / increase in melanin / reduction of melanogenic activity by removal of the 5′ phosphate: 5 days; for melanin content, of control cells: FIG. 12; for increase in melanin: FIG. 15; for reduction of melanogenic activity by removal of the 5′ phosphate: FIG. 16; for melanin content relative to control diluent-treated cells: 10 μM, five days, FIG. 17; for melanogenesis: 100 μM dinucleotides or 40 μM 11mers, 6 days
Experimental: The induction of melanogenesis in Cloudman S91 mouse melanoma cells by a five-nucleotide oligomer CATAC (SEQ ID NO: 6) and a nine-nucleotide oligomer, GAGTATGAG (SEQ ID NO: 1) was examined. Duplicates of Cloudman S91 murine melanoma cells were incubated with either 100 μM oligo or an equal volume of diluent (H2O) for 5 days. The cells were then collected, counted, and an equal number of cells were pelleted for melanin analysis. […] Variations of this oligonucleotide were evaluated: a scrambled 9-mer (TAGGAGGAT; SEQ ID NO: 2) and two truncated versions, a 7-mer (AGTATGA; SEQ ID NO: 3) and second 5-mer (GTATG; SEQ ID NO: 4). […] The truncated versions (SEQ ID NOs: 3 and 4) were also active, inducing 640% and 670% increases, respectively.
Cultures of Cloudman S91 murine melanoma cells were treated for 5 days with SEQ ID NO: 1, SEQ ID NO: 6, pTpT as a positive control, or an equal volume of diluent as a negative control. […] SEQ ID NO: 6 produced a slight increase in melanin, to 165+/−77% of control levels. SEQ ID NO: 1 stimulated melanin content to an average of 600+/−260% of control levels.
pTpT, shown previously to stimulate pigmentation in these cells, was used as a reference treatment, and diluent alone was used as a negative control. After five days of treatment with the oligonucleotides, the cells were collected, counted, and an equal number of cells were pelleted for melanin analysis. […] SEQ ID NO: 5, representing the telomere over-hang sequence, also at 10 μM, increased the melanin level to 10 times that of control cells.
S91 cells were cultured in the presence of diluent alone, pTpT p9mer (SEQ ID NO: 1), p7mer (AGTATGA; SEQ ID NO: 7) or p5mer #2 (SEQ ID NO: 4). […] Both SEQ ID NOS: 4 and 7 stimulated a 7–8 fold increase in melanin.
S91 cells were cultured for 5 days in the presence of the thymidine dinucleotides or SEQ ID NO: 1 with or without a 5′ phosphate or diluent alone as a negative control.
Cultures of S91 mouse melanoma cells (100,000 cells/38 cm^2) were treated with 100 μM pTpT or phosphorothioate pTpT (pTspT) (FIG. 22) or 40 μM 11mer-1 or the phosphorothioate 11mer-1 (11mer-1-S) (FIG. 23) for 6 days and were then collected, counted and assayed for melanin content.
Duplicate cultures of S91 cells (100,000 cells/39 cm^2) were either sham-irradiated or irradiated with 5 mJ/cm^2 solar-simulated light from a 1 kW xenon arc solar-simulator (XMN 1000-21, Optical Radiation, Azuza, Calif.) metered at […] using a research radiometer (model IL1700A, International Light, Newburyport, Mass.). Two sham-irradiated plates were then supplemented with 100 μM pTspT and two irradiated cultures were similarly treated with pTspT. After one week, cells were collected, counted and analyzed for melanin content by dissolving the cell pellets in 1 N NaOH and measuring the optical density at […]. […] However, this response was blocked by the addition of pTspT (FIG. 24). In addition, the constitutive pigmentation of these cells was reduced by the pTspT in the sham-irradiated cultures, similar to the data presented in FIGS. 22 and 23.

[2] = system: normal (control) fibroblasts; assay: FACS analysis of normal (control) fibroblasts; type: cell-based, human; details: 40 μM
Experimental: Fibroblasts were obtained from an NBS (Nijmegen breakage syndrome) patient, in which p95/Nbs1 was below the level of detection. Preconfluent cultures or normal (control) fibroblasts and NBS fibroblasts were treated with 40 μM of the oligonucleotides and collected after 48 hours for FACS analysis (FIGS. 34A–34H). The averages and standard deviations were calculated from triplicate cultures of each condition. FACS profiles from one representative experiment of three are shown.

Substance | pigment content increase, of control levels [1] | melanin content, of control cells [1] | increase in melanin [1] | reduction of melanogenic activity by removal of the 5′ phosphate [1] | increase in melanin content ([1]; variations of the 9-mer, cells not given) | melanin content relative to control diluent-treated cells [1] | S phase growth arrest [2] | melanogenesis [1] | constitutive pigmentation ([1]; 100 μM pTspT or 40 μM 11mer-1-S, 6 days or one week)
pGAGTATGAG (DNA, 5' {P}, backbone not given here) [SEQ ID NO: 1] | 418%±267% | 600+/−260% | a larger increase | 60% | 800% |  |  |  | 
pCTAACCCTAAC (DNA, 5' {P}, backbone not given here) [SEQ ID NO: 9, reference compound] |  |  |  |  |  | did not produce significant change in pigment content | unaffected |  | 
pGTTAGGGTTAG (DNA {P}-dGdTdTdAdGdGdGdTdTdAdG) [SEQ ID NO: 5] |  |  |  |  |  | 10 times that of control | exhibit an S phase growth arrest within 24 hours | stimulated melanogenesis | 
pGATCGATCGAT (DNA {P}-dGdAdTdCdGdAdTdCdGdAdT) [SEQ ID NO: 10, reference compound] |  |  |  |  |  | did not produce significant change in pigment content | unaffected |  | 
thymidine dinucleotide [pTpT] | 155%±60% | 255+/−60% | moderate increase in melanin content | 80% |  | 3 times that of control |  | stimulated melanogenesis | 
11mer-1-S: phosphorothioate 11mer-1 (dG*dT*dT*dA*dG*dG*dG*dT*dT*dA*dG; further chemistry not fully specified) |  |  |  |  |  |  |  | did not | reduced the constitutive pigmentation
